Measurements from ChEMBL document CHEMBL1201862, “PubChem BioAssay data set” (2004).
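48-hour exposure; five concentrations; linearly interpolated endpoints. GI50 is the concentration that inhibits growth by half.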 Activity calls are given as the source filed them. No stated cut-off is given here; in the data, active = GI50 up to about 1.1 µM and inactive = higher.

Experiments:
Assay in all cases: growth of human tumour cells (NCI), 48 h
DU-145 = tested on: DU-145
786-0 = tested on: 786-0
HCT-15 = tested on: HCT-15
RXF 393 = tested on: RXF 393
SK-MEL-28 = tested on: SK-MEL-28
OVCAR-4 = tested on: OVCAR-4
SW-620 = tested on: SW-620
HL-60 = tested on: HL-60
KM12 = tested on: KM12
PC-3 = tested on: PC-3
NCI-H522 = tested on: NCI-H522
SF-539 = tested on: SF-539
SF-268 = tested on: SF-268
M14 = tested on: M14
UACC-62 = tested on: UACC-62
SF-295 = tested on: SF-295
Hs-578T = tested on: Hs-578T
MDA-MB-435 = tested on: MDA-MB-435

Row | Compound | GI50 (DU-145) | GI50 (786-0) | GI50 (HCT-15) [µM] | GI50 (RXF 393) | GI50 (SK-MEL-28) | GI50 (OVCAR-4) | GI50 (SW-620) | GI50 (HL-60) | GI50 (KM12) | GI50 (PC-3) | GI50 (NCI-H522) | GI50 (SF-539) | GI50 (SF-268) | GI50 (M14) | GI50 (UACC-62) | GI50 (SF-295) | GI50 (Hs-578T) | GI50 (MDA-MB-435)
1 | CC(CC(C)(C)[N+](C)(C)C)[N+](C)(C)C (stereo not drawn) | > 100 µM (inactive) | > 100 µM (inactive) | > 100 | > 100 µM (inactive) | > 100 µM (inactive) | > 100 µM (inactive) | > 100 µM (inactive) | > 100 µM (inactive) | > 100 µM (inactive) | > 100 µM (inactive) | > 100 µM (inactive) | > 100 µM (inactive) | > 100 µM (inactive) | > 100 µM (inactive) | > 100 µM (inactive) | > 100 µM (inactive) |  | 
2 | CN(C)CCOC1(Cc2ccc(Cl)cc2Cl)CCC(C(C)(C)C)CC1 (stereo not drawn) |  | 1.58 µM (inactive) |  | 1.97 µM (inactive) | 1.47 µM (inactive) | 2.42 µM (inactive) | 2.4 µM (inactive) |  | 1.72 µM (inactive) | 1.68 µM (inactive) | 2 µM (inactive) | 2.02 µM (inactive) | 3.01 µM (inactive) | 1.54 µM (inactive) | 7.23 µM (inactive) | 2.09 µM (inactive) | 2.4 µM (inactive) | 1.64 µM (inactive)
3 | O=C1c2ccccc2C(=O)N1CCc1ncc[nH]1 | > 100 µM (inactive) | > 100 µM (inactive) | > 100 |  | > 100 µM (inactive) |  | > 100 µM (inactive) |  | > 100 µM (inactive) | > 100 µM (inactive) | > 100 µM (inactive) | > 100 µM (inactive) | > 100 µM (inactive) | > 100 µM (inactive) | > 100 µM (inactive) | > 100 µM (inactive) | > 100 µM (inactive) | > 100 µM (inactive)
4 | CS(=O)(=O)OCC1OC(n2ccc(NC(=O)c3ccccc3)nc2=O)CC1OS(C)(=O)=O (stereo not drawn) | > 100 µM (inactive) | > 100 µM (inactive) | > 100 |  | > 100 µM (inactive) | > 100 µM (inactive) | > 100 µM (inactive) | > 100 µM (inactive) | > 100 µM (inactive) | > 100 µM (inactive) | > 100 µM (inactive) | > 100 µM (inactive) | > 100 µM (inactive) | > 100 µM (inactive) | > 100 µM (inactive) | > 100 µM (inactive) | > 100 µM (inactive) | > 100 µM (inactive)
5 | CCOC(=O)C(NC(=O)c1cccc(Cl)c1)(Nc1ccc(S(=O)(=O)Nc2cc(C)nc(C)n2)cc1)C(F)(F)F (stereo not drawn) | > 100 µM (inactive) | > 100 µM (inactive) | > 100 |  | > 100 µM (inactive) | > 100 µM (inactive) | > 100 µM (inactive) | > 100 µM (inactive) | > 100 µM (inactive) | > 100 µM (inactive) | > 100 µM (inactive) | > 100 µM (inactive) | > 100 µM (inactive) | > 100 µM (inactive) |  | > 100 µM (inactive) | > 100 µM (inactive) | > 100 µM (inactive)
6 | COC(=O)c1cc(OCc2cc(OCc3ccc(Br)cc3)cc(OCc3ccc(Br)cc3)c2)cc(OCc2cc(OCc3ccc(Br)cc3)cc(OCc3ccc(Br)cc3)c2)c1 | > 100 µM (inactive) | > 100 µM (inactive) | > 100 |  | > 100 µM (inactive) | > 100 µM (inactive) |  |  | > 100 µM (inactive) | > 100 µM (inactive) | > 100 µM (inactive) | 14.1 µM (inactive) | > 100 µM (inactive) | > 100 µM (inactive) | > 100 µM (inactive) | > 100 µM (inactive) |  | > 100 µM (inactive)
7 | c1ccc2c(c1)c(N1CCCCC1)cc1nc3c(cc(N4CCCCC4)c4ccccc43)nc12 | > 100 µM (inactive) | > 100 µM (inactive) | > 100 | > 100 µM (inactive) | > 100 µM (inactive) | > 100 µM (inactive) | > 100 µM (inactive) | > 100 µM (inactive) | > 100 µM (inactive) | > 100 µM (inactive) | > 100 µM (inactive) | > 100 µM (inactive) |  | > 100 µM (inactive) | > 100 µM (inactive) | > 100 µM (inactive) |  | > 100 µM (inactive)
8 | OCC1c2ccccc2-n2nc(-c3ccccc3)c(O)c21 (stereo not drawn) | 68.5 µM (inactive) | 18.2 µM (inactive) | 14.9 | 17.7 µM (inactive) | 58.1 µM (inactive) | 26.9 µM (inactive) | 29.3 µM (inactive) |  | 18.4 µM (inactive) | 17.6 µM (inactive) | 22.1 µM (inactive) | 43.1 µM (inactive) | 36.9 µM (inactive) |  | 20.7 µM (inactive) | 38.5 µM (inactive) | 42.2 µM (inactive) | 26.2 µM (inactive)
9 | c1cc(C[S+]2CCCC2)oc1C[S+]1CCCC1 | > 100 µM (inactive) | > 100 µM (inactive) | > 100 | > 100 µM (inactive) | > 100 µM (inactive) | > 100 µM (inactive) | > 100 µM (inactive) |  |  | > 100 µM (inactive) | > 100 µM (inactive) | > 100 µM (inactive) | > 100 µM (inactive) | > 100 µM (inactive) | > 100 µM (inactive) | > 100 µM (inactive) | > 100 µM (inactive) | > 100 µM (inactive)
10 | COc1ccccc1N/C(SCc1ccccc1)=C(/C(Cl)=C(Cl)Cl)[N+](=O)[O-] | 26.7 µM (inactive) | 30.5 µM (inactive) | 20.7 |  | 15.1 µM (inactive) | 22 µM (inactive) | 17.8 µM (inactive) |  | 34 µM (inactive) | 31.8 µM (inactive) |  | 17.4 µM (inactive) | 18.6 µM (inactive) | 27 µM (inactive) | 48 µM (inactive) | 25.7 µM (inactive) |  | 17.3 µM (inactive)
11 | COc1ccc(-n2sc3ncc(-c4ccccc4)cc3c2=O)cc1 | 61.7 µM (inactive) | 18.6 µM (inactive) | 35.6 | 40.2 µM (inactive) | 37 µM (inactive) | 23.3 µM (inactive) | 30.7 µM (inactive) | 20.5 µM (inactive) | 50 µM (inactive) | 42.9 µM (inactive) |  |  |  | 80 µM (inactive) | 31 µM (inactive) | > 100 µM (inactive) |  | 40.6 µM (inactive)
12 | C(/C=N/N=C1NCCCCN1)=N\N=C1NCCCCN1 |  | > 100 µM (inactive) |  |  | > 100 µM (inactive) | > 100 µM (inactive) | > 100 µM (inactive) |  | > 100 µM (inactive) | > 100 µM (inactive) | > 100 µM (inactive) | > 100 µM (inactive) | > 100 µM (inactive) | > 100 µM (inactive) | > 100 µM (inactive) | > 100 µM (inactive) | > 100 µM (inactive) | > 100 µM (inactive)
13 | Cc1ccc2c(c1)C1(C)OC(CC(N)C1O)O2 (stereo not drawn) |  | > 100 µM (inactive) | > 100 | > 100 µM (inactive) | > 100 µM (inactive) |  | > 100 µM (inactive) | > 100 µM (inactive) | > 100 µM (inactive) |  | > 100 µM (inactive) | > 100 µM (inactive) |  | > 100 µM (inactive) | > 100 µM (inactive) | > 100 µM (inactive) |  | 
14 | CNc1cc([N+](=O)[O-])ccc1C(=O)N1CCC[C@H]1CO | > 100 µM (inactive) | > 100 µM (inactive) | > 100 |  | > 100 µM (inactive) |  | > 100 µM (inactive) | > 100 µM (inactive) | > 100 µM (inactive) | > 100 µM (inactive) | > 100 µM (inactive) | > 100 µM (inactive) | 8.83 µM (inactive) | > 100 µM (inactive) | > 100 µM (inactive) | > 100 µM (inactive) |  | > 100 µM (inactive)
15 | CC(C)(C)C(=O)O[C@H]1C=C[C@@H](O)[C@@H]2[C@H]1[C@@H]1C=C[C@H]2C1 | 47.6 µM (inactive) | 48.5 µM (inactive) | 20 |  | 18.5 µM (inactive) | 21.2 µM (inactive) | 42.7 µM (inactive) | 4.15 µM (inactive) | 2.63 µM (inactive) |  | 17.4 µM (inactive) | 26.5 µM (inactive) | 27.9 µM (inactive) | 13.7 µM (inactive) | 9.79 µM (inactive) | 44.5 µM (inactive) | > 100 µM (inactive) | 
16 | CCOP(=O)(OCC)C(C)(C)N(C)/C(F)=N/C(F)(F)F | > 100 µM (inactive) | > 100 µM (inactive) | > 100 |  | > 100 µM (inactive) | > 100 µM (inactive) | > 100 µM (inactive) | > 100 µM (inactive) | > 100 µM (inactive) | > 100 µM (inactive) |  | > 100 µM (inactive) | > 100 µM (inactive) | > 100 µM (inactive) | > 100 µM (inactive) | > 100 µM (inactive) | > 100 µM (inactive) | > 100 µM (inactive)
17 | CC(C)(C)[Si](C)(C)OCC1OC(n2ccc(=O)[nH]c2=O)C(O[Si](C)(C)C(C)(C)C)[C@]12O[C@@H]2CO (stereo partly drawn) | 19.4 µM (inactive) | 18.2 µM (inactive) | 11.9 |  | 15.9 µM (inactive) | 13.6 µM (inactive) | 20.2 µM (inactive) |  | 14.8 µM (inactive) | 4.58 µM (inactive) | 14.1 µM (inactive) | 21.5 µM (inactive) | 19.4 µM (inactive) | 14.4 µM (inactive) | 16.3 µM (inactive) | 10.3 µM (inactive) |  | 16 µM (inactive)
18 | O=C1COc2cc3c(cc2N1)SCCC(=O)N3 |  | > 100 µM (inactive) |  |  | > 100 µM (inactive) | > 100 µM (inactive) | > 100 µM (inactive) | > 100 µM (inactive) | > 100 µM (inactive) |  | > 100 µM (inactive) | > 100 µM (inactive) | > 100 µM (inactive) | > 100 µM (inactive) | > 100 µM (inactive) | > 100 µM (inactive) |  | 
